# Data published in PubChem BioAssay AID1963837 (Molecular Pharmacology Branch, DTP, NCI, 2024).
# “And” between values parts separate entries of the source, which are not always exact repeats. Equal entries are not always repeated.
# Test system: 843126-344-R-J1-PDC complex spheroid viability
# Assay: Anticancer human tumor 843126-344-R-J1-PDC patient-derived melanoma cell line growth inhibition [POLQ]
# Settings: for viability, T/C: stronger effect = lower value
# Method: Multicellular complex tumor spheroid response to Polymerase (POL) inhibitors (novobiocin, ART-558, RP6685) in combination with a variety of drugs and investigational agents in selected tumor cell lines
# The POL inhibitors (novobiocin, ART-558, and RP6685) were evaluated both individually and in combination with standard of care and investigational anticancer small molecules within a complex spheroid model of solid tumors. . Complex spheroids include a stromal component modeled by human endothelial cells (HUVEC) and fibroblasts modeled by human mesenchymal stem cells (MSCs). The concentration ranges selected for each drug and investigational agent were based upon clinically achievable concentrations if the clinical Cmax of the agent was known.
# Compounds. The drugs and investigational agents: novobiocin (NSC847541), ART-558 (NSC835418), RP-6685 (NSC848927), peposertib (NSC802822), ceralasertib (NSC780249), elimusertib (NSC800525), camonsertib (NSC841442), AZD-1390 (NSC803789), olaparib (NSC753686), talazoparib (NSC767125), rucaparib (NSC756644), sotorasib (NSC818433), MRTX-1133 (NSC836407), SN-38 (NSC673596), topotecan (NSC609699), epotoside (NSC141540), doxorubicin (NSC123127), gemcitabine (NSC613327), 5-fluorouracil (NSC19893), paclitaxel (NSC125973), vemurafenib (NSC761431), MSA-2 (NSC828583), SN-011 (NSC837082), adavosertib (NSC754352), prexasertib (NSC758257), carboplatin (NSC241240) and oxaliplatin (NSC266046), were obtained from the National Cancer Institute (NCI) Developmental Therapeutics Program Chemical Repository (21). The FDA-approved anticancer drug set is available from the Developmental Therapeutics Program at https://dtp.cancer.gov/organization/dscb/obtaining/. […] The stock solutions were prepared in dimethyl sulfoxide (DMSO, Sigma-Aldrich, St. Louis, MO, cat. D2650), except for the platinum compounds which were prepared in saline (Quality Biological, Gaithersburg, MD, cat. 114-055-101), at 800-fold the tested concentration and stored at -70 degrees C prior to their use. All drugs and investigational agents were tested over a range starting from a high concentration at or near the clinical Cmax and decreasing in half-log increments. If the clinical Cmax for an agent had not been determined, the highest concentration tested was 10 microM, except for SN-38, which was tested at a high concentration of 1 microM.
# Cell Culture. All cells were maintained in an incubator at 37 degrees C and 5% CO2 with 95% humidity. The PDC lines were cultured according to standard operating procedures established by the NCI PDMR (https://pdmr.cancer.gov). Table 3 of the manuscript, lists the cell lines along with the number of the three cell types plated to form the mct-spheroids and media for tumor cell growth. After thawing, all PDC lines, except 997537-175-T-J1-PDC and 415267-285-R-J2-PDC, were cultured in Matrigel-coated flasks prepared with a working solution of 1X Ham's F-12 nutrient mix, without supplementation (Thermo Fisher Scientific, cat. 11765054), 100 U/mL penicillin-streptomycin (Thermo Fisher Scientific, cat. 15140122), and 2.5% Matrigel (Corning Inc., Corning, NY, cat. 354248) for the first three passages. The two PDC lines 997537-175-T-J1-PDC and 415267-285-R-J2-PDC were cultured on uncoated flasks. The 857933-349-R-J2-PDC line was cultured in 6C/Colon 1B media containing advanced DMEM/F-12 (Thermo Fisher Scientific, cat. 12634028), 10 mM HEPES (Thermo Fisher Scientific, cat. 15630080), 1X GlutaMAX supplement (Thermo Fisher Scientific, cat. 35050061), 0.1 mg/mL primocin (InvivoGen, San Diego, CA, cat. ant-pm-2), 10% defined fetal bovine serum, heat inactivated (HyClone Laboratories Inc., Logan, UT, cat. SH30070.03HI), 50% L-WRN conditioned media (ATCC, cat. CRL-3276), 1.25 mM N-Acetyl-L-cysteine (Sigma-Aldrich, cat. A9165), 10 mM nicotinamide (Sigma-Aldrich, cat. N0636), 1X B-27 supplement (Thermo Fisher Scientific, cat. 17504044), 1X N-2 supplement (Thermo Fisher Scientific, cat. […]
# [1] = curve of first compound, second compound 0.0316 µM
# [2] = curve of first compound, second compound 0.1 µM
# [3] = curve of first compound, second compound 0.316 µM
# [4] = curve of first compound, second compound 1 µM
# [5] = curve of first compound, second compound 3.16 µM
# [6] = curve of first compound, second compound 10 µM
# [7] = second compound 0.0316 µM, first compound 0.0316 µM
# [8] = second compound 0.0316 µM, first compound 0.1 µM
# [9] = second compound 0.0316 µM, first compound 0.316 µM
# [10] = second compound 0.0316 µM, first compound 1 µM
# [11] = second compound 0.0316 µM, first compound 3.16 µM
# [12] = second compound 0.0316 µM, first compound 10 µM
# [13] = second compound 0.1 µM, first compound 0.0316 µM
# [14] = second compound 0.1 µM, first compound 0.1 µM
# [15] = second compound 0.1 µM, first compound 0.316 µM
# [16] = second compound 0.1 µM, first compound 1 µM
# [17] = second compound 0.1 µM, first compound 3.16 µM
# [18] = second compound 0.1 µM, first compound 10 µM
# [19] = second compound 0.316 µM, first compound 0.0316 µM
# [20] = second compound 0.316 µM, first compound 0.1 µM
# [21] = second compound 0.316 µM, first compound 0.316 µM
# [22] = second compound 0.316 µM, first compound 1 µM
# [23] = second compound 0.316 µM, first compound 3.16 µM
# [24] = second compound 0.316 µM, first compound 10 µM
# [25] = second compound 1 µM, first compound 0.0316 µM
# [26] = second compound 1 µM, first compound 0.1 µM
# [27] = second compound 1 µM, first compound 0.316 µM
# [28] = second compound 1 µM, first compound 1 µM
# [29] = second compound 1 µM, first compound 3.16 µM
# [30] = second compound 1 µM, first compound 10 µM
# [31] = second compound 3.16 µM, first compound 0.0316 µM
# [32] = second compound 3.16 µM, first compound 0.1 µM
# [33] = second compound 3.16 µM, first compound 0.316 µM
# [34] = second compound 3.16 µM, first compound 1 µM
# [35] = second compound 3.16 µM, first compound 3.16 µM
# [36] = second compound 3.16 µM, first compound 10 µM
# [37] = second compound 10 µM, first compound 0.0316 µM
# [38] = second compound 10 µM, first compound 0.1 µM
# [39] = second compound 10 µM, first compound 0.316 µM
# [40] = second compound 10 µM, first compound 1 µM
# [41] = second compound 10 µM, first compound 3.16 µM
# [42] = second compound 10 µM, first compound 10 µM
# 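Throughout, for viability, T/C: spheroids exposed to drugs for seven days before readout.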
structure (smiles),measurement,setting,value
CCc1c2c(nc3ccc(O)cc13)-c1cc3c(c(=O)n1C2)COC(=O)[C@]3(O)CC,"viability, T/C",compound 0.00316 µM,62.8% and 69.6% and 70%
same,"viability, T/C",compound 0.01 µM,52.5% and 56.2% and 54.6%
same,"viability, T/C",compound 0.0316 µM,61.5% and 68% and 63%
same,"viability, T/C",compound 0.1 µM,71.1% and 62.4% and 61.4%
same,"viability, T/C",compound 0.316 µM,57% and 64% and 62.5%
same,"viability, T/C",compound 1 µM,53.9% and 45.5% and 50.1%
same,IC50,curve of compound,> 1 µM
O=c1[nH]cc(F)c(=O)[nH]1,"viability, T/C",compound 0.0316 µM,119% and 102% and 97%
same,"viability, T/C",compound 0.1 µM,107% and 84.6% and 86.3%
same,"viability, T/C",compound 0.316 µM,104% and 89.5% and 75.2%
same,"viability, T/C",compound 1 µM,102% and 96.6% and 104%
same,"viability, T/C",compound 3.16 µM,106% and 98.3% and 96.6%
same,"viability, T/C",compound 10 µM,79.5% and 96.8% and 76.3%
same,IC50,curve of compound,> 10 µM
Nc1ccn(C2OC(CO)C(O)C2(F)F)c(=O)n1 (stereo not given) + Nc1ccc(C#CCN(C(=O)Cc2ncc(C(F)(F)F)cc2C(F)(F)F)c2ccc(F)cc2)nn1,IC50,[1],< 0.0316 µM
same,IC50,[2],< 0.0316 µM
same,IC50,[3],< 0.0316 µM
same,IC50,[4],< 0.0316 µM
same,IC50,[5],< 0.0316 µM
same,IC50,[6],< 0.0316 µM
same,"viability, T/C",[7],36.5%
same,"viability, T/C",[8],35.5%
same,"viability, T/C",[9],38.9%
same,"viability, T/C",[10],38%
same,"viability, T/C",[11],37.6%
same,"viability, T/C",[12],35%
same,"viability, T/C",[13],43%
same,"viability, T/C",[14],41.8%
same,"viability, T/C",[15],38.7%
same,"viability, T/C",[16],39.8%
same,"viability, T/C",[17],38.5%
same,"viability, T/C",[18],41.8%
same,"viability, T/C",[19],48.2%
same,"viability, T/C",[20],38.5%
same,"viability, T/C",[21],36%
same,"viability, T/C",[22],38%
same,"viability, T/C",[23],38.9%
same,"viability, T/C",[24],37.3%
same,"viability, T/C",[25],36.3%
same,"viability, T/C",[26],35.3%
same,"viability, T/C",[27],46.5%
same,"viability, T/C",[28],35%
same,"viability, T/C",[29],38.2%
same,"viability, T/C",[30],29.6%
same,"viability, T/C",[31],36.4%
same,"viability, T/C",[32],35.2%
same,"viability, T/C",[33],39.9%
same,"viability, T/C",[34],36.2%
same,"viability, T/C",[35],37.5%
same,"viability, T/C",[36],36.5%
same,"viability, T/C",[37],39.5%
same,"viability, T/C",[38],38.1%
same,"viability, T/C",[39],32.8%
same,"viability, T/C",[40],39.9%
same,"viability, T/C",[41],31.2%
same,"viability, T/C",[42],42.6%
CCCS(=O)(=O)Nc1ccc(F)c(C(=O)c2c[nH]c3ncc(-c4ccc(Cl)cc4)cc23)c1F,"viability, T/C",compound 0.0316 µM,101% and 86.2%
same,"viability, T/C",compound 0.1 µM,91.1% and 76%
same,"viability, T/C",compound 0.316 µM,87.4% and 96%
same,"viability, T/C",compound 1 µM,85.6% and 76.9%
same,"viability, T/C",compound 3.16 µM,72.9% and 74.4%
same,"viability, T/C",compound 10 µM,91.5% and 59.1%
same,IC50,curve of compound,> 10 µM
CNCc1ccc(-c2[nH]c3cc(F)cc4c3c2CCNC4=O)cc1 + Cc1cccc(N(C)C(=O)C2C(O)CCN2c2nc(C)cc(C(F)(F)F)c2C#N)c1,IC50,[1],> 10 µM
same,IC50,[2],> 10 µM
same,IC50,[3],> 10 µM
same,IC50,[4],> 10 µM
same,IC50,[5],> 10 µM
same,IC50,[6],> 10 µM
same,"viability, T/C",[7],76.6%
same,"viability, T/C",[8],84.1%
same,"viability, T/C",[9],75.3%
same,"viability, T/C",[10],91%
same,"viability, T/C",[11],79.4%
same,"viability, T/C",[12],79.2%
same,"viability, T/C",[13],84.7%
same,"viability, T/C",[14],77%
same,"viability, T/C",[15],95.7%
same,"viability, T/C",[16],73.5%
same,"viability, T/C",[17],87.3%
same,"viability, T/C",[18],64.5%
same,"viability, T/C",[19],85.3%
same,"viability, T/C",[20],98%
same,"viability, T/C",[21],82.6%
same,"viability, T/C",[22],90.2%
same,"viability, T/C",[23],77.3%
same,"viability, T/C",[24],69.7%
same,"viability, T/C",[25],68.9%
same,"viability, T/C",[26],87.2%
same,"viability, T/C",[27],95.7%
same,"viability, T/C",[28],82.4%
same,"viability, T/C",[29],94.6%
same,"viability, T/C",[30],64.3%
same,"viability, T/C",[31],79.8%
same,"viability, T/C",[32],83.4%
same,"viability, T/C",[33],83.6%
same,"viability, T/C",[34],85.2%
same,"viability, T/C",[35],87.5%
same,"viability, T/C",[36],72.9%
same,"viability, T/C",[37],82.5%
same,"viability, T/C",[38],76.9%
same,"viability, T/C",[39],76.9%
same,"viability, T/C",[40],90.5%
same,"viability, T/C",[41],88.3%
same,"viability, T/C",[42],74.9%
